Experimental findings from ChEMBL document CHEMBL6109134, “Discovery of AMG 193, an MTA-Cooperative PRMT5 Inhibitor for the Treatment of MTAP-Deleted Cancers” (J Med Chem, 2025) are described below.

A short description of data set [1]: Efflux ratio in MDCK-II cells. To be noted: dog.
Data set [2] is described as follows: Unbound brain-to-plasma concentration ratio in female Sprague-Dawley rat at 25 mg/kg, po administered as single dose. The class given is ADME, organism-based. The settings on record: read-out: K(p,uu,brain).
The test system of a further data set is HCT-116. As to the kind of experiment: Antitumor activity against human HCT-116 cells harboring wildtype MTAP xenografted in female athymic nude mouse model assessed as tumor growth inhibition at 3 to 100 mg/kg, po administered once daily for 14 days. In kind it is functional, organism-based. The settings on record: dose 3-100 mg/kg, time 14.0 day. Background: Xenograft models place foreign cells or tissue in a host animal.

Data set [3] in a line: Metabolic stability in dog liver microsomes assessed as intrinsic clearance. In kind it is ADME, Canis lupus familiaris, Microsome. To be noted: read-out: CLH.
Data set [4] can be described thus: Protein binding in rat plasma assessed as unbound fraction by ultracentrifugation.
For data set [5], the target named is Protein arginine N-methyltransferase 5 (Homo sapiens) (UniProt O14744). The experiment in a line: In vivo inhibition of PRMT5 in athymic nude mouse xenografted with human HCT-116 cells harboring wildtype MTAP assessed as decrease in SDMA level in tumor at 100 mg/kg, po administered once daily for 4 days and measured 4 hrs post last dose by ELISA relative to control. In kind it is functional, organism-based. To be noted: time 4.0 day.
Chain of Protein arginine N-methyltransferase 5 (Homo sapiens) (O14744 whole entry): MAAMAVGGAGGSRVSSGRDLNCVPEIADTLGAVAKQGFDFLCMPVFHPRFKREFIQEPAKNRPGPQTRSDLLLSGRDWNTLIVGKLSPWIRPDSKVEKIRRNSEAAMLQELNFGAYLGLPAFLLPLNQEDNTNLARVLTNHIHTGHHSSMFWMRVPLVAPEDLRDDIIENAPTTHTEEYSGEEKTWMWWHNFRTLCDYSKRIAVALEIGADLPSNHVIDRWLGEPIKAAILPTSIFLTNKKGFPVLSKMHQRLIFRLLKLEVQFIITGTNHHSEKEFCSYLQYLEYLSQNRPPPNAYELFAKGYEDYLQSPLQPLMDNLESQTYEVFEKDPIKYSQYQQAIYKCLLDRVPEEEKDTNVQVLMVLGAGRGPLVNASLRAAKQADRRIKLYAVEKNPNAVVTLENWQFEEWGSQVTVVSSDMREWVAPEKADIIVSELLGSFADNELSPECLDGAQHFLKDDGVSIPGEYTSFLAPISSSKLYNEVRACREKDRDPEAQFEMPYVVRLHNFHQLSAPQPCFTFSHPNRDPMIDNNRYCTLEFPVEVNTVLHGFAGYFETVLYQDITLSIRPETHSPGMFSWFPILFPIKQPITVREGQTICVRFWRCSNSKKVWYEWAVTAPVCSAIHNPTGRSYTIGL

Data set [6] concerns the target Voltage-gated inwardly rectifying potassium channel KCNH2 (Homo sapiens, UniProt Q12809). As to the kind of experiment: Inhibition of human ERG by binding assay.
The target in data set [7] is Protein arginine N-methyltransferase 5 (Homo sapiens) (UniProt O14744). As to the kind of experiment: Binding affinity to PRMT5 (unknown origin) assessed as occupancy in presence of MTA by SPR analysis relative to control. On the technique in general: In SPR one partner is held on a chip, and binding of the other changes the refractive index at the surface.
Data set [8] can be described thus: Metabolic stability in rat hepatocytes assessed as intrinsic clearance measured per 10^6 cells. In kind it is ADME, cell-based, Hepatocyte. The settings on record: read-out: CLH.
Data set [9] can be described thus: Unbound brain-to-plasma concentration ratio in male Sprague-Dawley rat at 75 mg/kg, po administered as single dose. To be noted: read-out: K(p,uu,brain). The class given is ADME, organism-based.
A short description of data set [10]: Toxicity in athymic nude mouse xenografted with MTAP-deleted human BXPC-3 cells assessed as effect on body weight at 10 to 100 mg/kg, po administered once daily for 26 days. The class given is organism-based. To be noted: in vivo, 624 h, dose 10-100 mg/kg, time 26 day.
Data set [11] can be described thus: Solubility of compound in Hcl buffer at pH 2.0.
A further data set relates to DOHH-2. The experiment in a line: Antiproliferative activity against human DOHH-2 cells assessed as effect on cell viability. The class given is functional, cell-based.
A short description of data set [12]: Protein binding in mouse plasma assessed as unbound fraction by ultracentrifugation. To be noted: plasma.
Data set [13] in a line: Unbound brain-to-plasma concentration ratio in male Sprague-Dawley rat at 25 mg/kg, po administered as single dose. The class given is ADME, organism-based. The settings on record: read-out: K(p,uu,brain).
The subject of another data set is U-87 MG. The experiment in a line: Antiproliferative activity against human U-87 MG cells assessed as effect on cell viability. The class given is functional, cell-based, U-87MG ATCC.
Data set [14] concerns the target Protein arginine N-methyltransferase 5 (Homo sapiens) (UniProt O14744). As to the kind of experiment: In vivo inhibition of PRMT5 in athymic nude mouse xenografted with human HCT-116 cells harboring wildtype MTAP assessed as decrease in SDMA level in tumor at 30 mg/kg, po administered once daily for 4 days and measured 4 hrs post last dose by ELISA relative to control. The class given is functional, organism-based. The settings on record: time 4.0 day.

Data set [15] is described as follows: Toxicity in female rat up to 25 mg/kg, po administered as single dose for 14 days. In kind it is organism-based. The settings on record: in vivo, 336 h, time 14 day.
Data set [16] is described as follows: Toxicity in female athymic nude mouse xenografted with MTAP-deleted human HCT-116 cells assessed as body weight change at 3 to 100 mg/kg, po administered once daily for 14 days. To be noted: in vivo, 336 h, dose 3-100 mg/kg, time 14 day. In kind it is organism-based.
Data set [17] is described as follows: Passive permeability in MDCK-II cells at 0.1 to 10 uM. The settings on record: dog, dose 0.1-10 µM, read-out: permeability. In kind it is ADME, cell-based, Canis lupus familiaris.
Another data set concerns the target CYP3A4 (Homo sapiens, UniProt P08684). The experiment in a line: in vitro. The settings on record: human liver microsomes, probe midazolam. For orientation: Liver microsomes are a subcellular fraction often used to study metabolism.
A further data set deals with Cytochrome P450 2D6 (Homo sapiens, UniProt P10635). The experiment in a line: Inhibition of CYP2D6 (unknown origin).
Chain of Cytochrome P450 2D6 (P10635 whole entry): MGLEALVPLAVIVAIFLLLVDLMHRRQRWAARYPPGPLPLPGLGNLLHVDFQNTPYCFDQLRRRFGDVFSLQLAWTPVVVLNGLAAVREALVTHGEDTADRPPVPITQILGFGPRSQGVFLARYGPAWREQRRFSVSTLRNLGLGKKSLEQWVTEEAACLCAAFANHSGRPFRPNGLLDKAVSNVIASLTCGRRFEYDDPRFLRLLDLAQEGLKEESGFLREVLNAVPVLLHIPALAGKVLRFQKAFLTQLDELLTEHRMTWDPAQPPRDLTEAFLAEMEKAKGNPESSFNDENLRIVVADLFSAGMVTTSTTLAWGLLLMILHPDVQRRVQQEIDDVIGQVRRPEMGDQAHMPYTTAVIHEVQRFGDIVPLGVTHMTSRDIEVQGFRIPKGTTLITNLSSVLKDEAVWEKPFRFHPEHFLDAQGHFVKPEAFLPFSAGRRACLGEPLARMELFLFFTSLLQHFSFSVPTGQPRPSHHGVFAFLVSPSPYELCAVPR

Usually efflux ratio stands for a quotient of directional permeabilities that is used to spot active efflux. As usually defined, the fraction unbound is free concentration divided by total concentration. The term inhibition denotes the change of the read-out against control, counted positive when it falls. What is called IC50 is the midpoint of a concentration-inhibition curve. A word on the solubility: it is how much of the substance goes into solution per volume. Higher therefore signals a readily soluble substance.

Structures are written as SMILES. ≈ marks a conversion by molar mass, not a printed value. Calls of active or inactive are those of the source. The calls are words filed in the database; no cut-off is given here. Some results are limits rather than exact numbers.

Chain of CYP3A4 (P08684 whole entry): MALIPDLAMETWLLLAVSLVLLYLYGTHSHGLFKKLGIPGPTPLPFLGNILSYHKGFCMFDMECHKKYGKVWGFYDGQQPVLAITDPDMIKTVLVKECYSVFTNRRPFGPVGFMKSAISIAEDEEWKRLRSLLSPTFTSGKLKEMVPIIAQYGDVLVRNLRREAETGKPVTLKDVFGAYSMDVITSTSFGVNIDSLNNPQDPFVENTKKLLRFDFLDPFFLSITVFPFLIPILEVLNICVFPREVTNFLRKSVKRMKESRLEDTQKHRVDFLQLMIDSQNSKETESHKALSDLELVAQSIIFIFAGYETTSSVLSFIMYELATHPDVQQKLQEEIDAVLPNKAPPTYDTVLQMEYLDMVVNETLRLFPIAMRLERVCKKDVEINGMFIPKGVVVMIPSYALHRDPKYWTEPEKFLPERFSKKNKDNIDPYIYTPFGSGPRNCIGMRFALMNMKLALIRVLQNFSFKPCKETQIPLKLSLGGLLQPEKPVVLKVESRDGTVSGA
Chain of Voltage-gated inwardly rectifying potassium channel KCNH2 (Q12809 whole entry): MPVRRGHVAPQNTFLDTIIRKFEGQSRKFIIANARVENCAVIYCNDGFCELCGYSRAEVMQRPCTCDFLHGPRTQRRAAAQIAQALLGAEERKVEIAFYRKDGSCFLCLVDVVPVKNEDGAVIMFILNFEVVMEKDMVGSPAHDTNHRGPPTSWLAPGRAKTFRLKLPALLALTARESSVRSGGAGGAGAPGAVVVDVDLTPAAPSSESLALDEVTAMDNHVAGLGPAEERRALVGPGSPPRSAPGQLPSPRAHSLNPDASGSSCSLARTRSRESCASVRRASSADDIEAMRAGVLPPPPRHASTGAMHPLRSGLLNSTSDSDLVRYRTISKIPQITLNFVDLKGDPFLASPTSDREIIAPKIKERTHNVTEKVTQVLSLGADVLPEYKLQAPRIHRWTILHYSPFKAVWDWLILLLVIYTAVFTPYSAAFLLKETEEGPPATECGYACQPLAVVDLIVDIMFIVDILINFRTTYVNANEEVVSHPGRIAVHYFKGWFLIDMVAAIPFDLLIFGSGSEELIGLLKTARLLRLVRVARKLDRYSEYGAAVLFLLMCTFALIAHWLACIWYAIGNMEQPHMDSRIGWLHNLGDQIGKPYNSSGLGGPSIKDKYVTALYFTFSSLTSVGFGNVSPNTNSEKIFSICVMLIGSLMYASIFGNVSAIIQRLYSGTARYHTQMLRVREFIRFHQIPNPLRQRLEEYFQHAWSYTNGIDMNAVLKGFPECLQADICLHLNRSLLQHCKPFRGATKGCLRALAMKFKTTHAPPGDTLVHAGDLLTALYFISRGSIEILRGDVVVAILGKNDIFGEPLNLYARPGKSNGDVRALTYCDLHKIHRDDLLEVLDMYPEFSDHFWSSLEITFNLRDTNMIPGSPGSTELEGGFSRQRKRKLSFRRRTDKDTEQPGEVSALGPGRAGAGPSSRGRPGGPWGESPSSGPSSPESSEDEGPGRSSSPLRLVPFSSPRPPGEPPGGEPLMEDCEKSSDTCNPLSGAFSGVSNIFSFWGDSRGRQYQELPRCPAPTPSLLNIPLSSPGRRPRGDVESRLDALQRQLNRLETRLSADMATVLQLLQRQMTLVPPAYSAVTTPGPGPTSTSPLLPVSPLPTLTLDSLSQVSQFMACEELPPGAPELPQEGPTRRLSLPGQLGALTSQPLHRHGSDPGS

Consider `Nc1nc2cnc(C(=O)N3CCOC[C@@H]3c3ccc(C(F)(F)F)cc3)cc2c2c1COC2`, for which the efflux ratio in data set [1] was found to be 3. Also, the figures for the Kp uu in data set [2], in data set [9] and in data set [13] were 0.14, 0.15 and 0.15, respectively. In addition, the outcome with HCT-116 was inactive. Moreover, the microsomal CLint in data set [3] is 14 µL/min/mg. Also, the values for the free fraction (fraction unbound) in data set [4] and in data set [12] were 0.1 and 0.07, respectively. The inhibition in data set [5] is 79%; in [14] it was 48%. The IC50 is over 29 µM in [6], 51 nM with DOHH-2, 357 nM in the data set on U-87 MG and 117 µM against Cytochrome P450 2D6. Also, in [7], the Occ was 70%. Moreover, the hepatocyte CLint in data set [8] came to 31 µL/min/1e6 cells. For the same compound, the Activity result in [10], in [15] and in [16] was “Non-toxic” in each case. This compound yielded a solubility in data set [11] of 492 µM (≈ 219 µg/mL). For the same compound, the Papp at up to 10 µM in data set [17] was 33 ×10⁻⁶ cm/s. At CYP3A4, the inhibition at 30 min, 10 µM was under 20%.
